Assay results from ChEMBL document CHEMBL4118082 (Eur J Med Chem, 2017).
Converted amounts (≈) assume the structure as drawn.

Key:
[1] = Cytotoxicity against human MRC5 cells assessed as reduction in cell viability after 24 hrs by neutral red uptake assay; format: cell-based
Mycobacterium avium [2] = assay: Antimycobacterial activity against Mycobacterium avium ssp. avium ATCC 15769 harboring pSMT1 carrying luxAB gene after 6 days by luminescence based serial dilution method; format: functional, Mycobacterium avium subsp. avium; details: ATCC 15769, 144 h
Mycobacterium avium [3] = assay: Antimycobacterial activity against Mycobacterium avium ssp. paratuberculosis ATCC 19698 harboring pSMT1 carrying luxAB gene after 6 days by luminescence based serial dilution method; format: functional, Mycobacterium avium subsp. paratuberculosis; details: ATCC 19698, 144 h
[4] = system: Mycolicibacterium smegmatis; assay: Antimycobacterial activity against Mycobacterium smegmatis MC2 155 harboring pSMT1 carrying luxAB gene after 6 days by luminescence based serial dilution method; format: functional; details: str. MC2 155, 144 h

Structure (SMILES)	CC50 at 24 h [1] [µM]	MIC90 (Mycobacterium avium [2]) [µM]	MIC90 (Mycobacterium avium [3]) [µM]	MIC90 [4] [µM]
O=c1c(-c2ccccc2)c(O)c2ccccc2n1-c1ccccc1	> 128	35.4 (≈ 11.1 µg/mL)	23.8 (≈ 7.46 µg/mL)	10.3 (≈ 3.23 µg/mL)
COc1cccc2c(O)c(-c3ccccc3)c(O)nc12	104	13 (≈ 3.47 µg/mL)	18 (≈ 4.81 µg/mL)	15.1 (≈ 4.04 µg/mL)
Oc1nc2ccccc2c(O)c1-c1ccccc1	96.5	19.8 (≈ 4.7 µg/mL)	21.2 (≈ 5.03 µg/mL)	23.5 (≈ 5.58 µg/mL)
CC(=O)Oc1c(-c2ccccc2)c(=O)[nH]c2ccc(F)cc12	88.4	8.9 (≈ 2.65 µg/mL)	7.5 (≈ 2.23 µg/mL)	9.5 (≈ 2.82 µg/mL)
Cc1cc2[nH]c(=O)c(-c3ccccc3)c(O)c2cc1C	61.8	15.7 (≈ 4.17 µg/mL)	20.3 (≈ 5.39 µg/mL)	17.3 (≈ 4.59 µg/mL)
O=c1[nH]c2c(O)cccc2c(O)c1-c1ccccc1	84.1	17 (≈ 4.31 µg/mL)	13.7 (≈ 3.47 µg/mL)	20 (≈ 5.07 µg/mL)
O=c1[nH]c2ccc(F)cc2c(O)c1-c1ccccc1	67.4	8.5 (≈ 2.17 µg/mL)	11.5 (≈ 2.94 µg/mL)	8.4 (≈ 2.14 µg/mL)
COc1ccc2[nH]c(=O)c(-c3ccccc3)c(O)c2c1	75.4	17.5 (≈ 4.68 µg/mL)	18.6 (≈ 4.97 µg/mL)	15.3 (≈ 4.09 µg/mL)
O=c1[nH]c2ccc(O)cc2c(O)c1-c1ccccc1	> 128	15.6 (≈ 3.95 µg/mL)	13.2 (≈ 3.34 µg/mL)	16.8 (≈ 4.25 µg/mL)
Cc1ccc2[nH]c(=O)c(-c3ccccc3)c(O)c2c1	> 128	12.6 (≈ 3.17 µg/mL)	13.2 (≈ 3.32 µg/mL)	19.2 (≈ 4.82 µg/mL)
Cc1c(O)c2ccccc2[nH]c1=O	84.7	18.4 (≈ 3.22 µg/mL)	14.5 (≈ 2.54 µg/mL)	23.2 (≈ 4.06 µg/mL)
O=c1[nH]c2cc(O)ccc2c(O)c1-c1ccccc1	92.1	16.3 (≈ 4.13 µg/mL)	15.7 (≈ 3.98 µg/mL)	18.5 (≈ 4.69 µg/mL)
COc1ccc2c(O)c(-c3ccccc3)c(=O)[nH]c2c1	59	13.8 (≈ 3.69 µg/mL)	16.5 (≈ 4.41 µg/mL)	19.5 (≈ 5.21 µg/mL)
NNC(=O)c1ccncc1 [ISONIAZID]	–	< 0.1	< 0.1	< 0.1
